Results reported in patent US20250034108A1, “SODIUM CHANNEL BLOCKERS” (NOVARTIS AG, priority 2023, published 2025).

Columns and labels:
[1] = Hygroscopicity / water uptake of crystalline forms of Example 1; format: physicochemical; settings: for hygroscopicity: crystalline form
human Nav1.5 [2] = target: T1, human Nav1.5 (Homo sapiens (Human), UniProt Q14524); assay: Qpatch automated patch-clamp, peak Nav1.5 current inhibition, 1 Hz with 50 nM ATX-II (holding potential -100 mV); format: cell-based; settings: CHO-K1 cells stably expressing human Nav1.5, read-out: Nav1.5 IC50 (1 Hz, ATXII)
In short: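 CHO-K1 cells stably expressing human Nav1.5, whole-cell recording at room temperature; 3-min pre-incubation at 0–30 uM ascending, with or without 50 nM ATX-II. Pulses to −10 mV (400 ms) from −100 mV at 1 Hz for 25 s; last-pulse peak current normalized to pre-compound and DMSO run-down, IC50 fitted.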

human Nav1.5 [3] = target: T1, human Nav1.5; assay: Qpatch automated patch-clamp, peak Nav1.5 current inhibition, 1 Hz sinus rate, ventricular condition (holding potential -100 mV); format: cell-based; settings: CHO-K1 cells stably expressing human Nav1.5, without ATX-II
From the text: Electrophysiology was used to measure the ionic currents in isolated living cells using automated patch-clamp recording, performed using an automated patch-clamp machine called Qpatch (Sophion Bioscience). Two different assay conditions were used to identify compounds with atrial-selective potential. The 5-Hz AF-like assay has more depolarized holding potential at −85 mV to mimic atrial resting membrane potential (RMP) and was used to identify compounds of strong rate-dependence. Active, rate-dependent compounds were then screened at 1 Hz (i.e., sinus rate) at the holding potential of −100 mV to mimic the ventricular scenario and help identify compounds with the largest potency separation or attenuation from the 5-Hz AF-like assay. Such compounds have the potential for treating AF without the QRS liability inherent to Class Ic drugs.
The sodium current conducted through a cell (via Nav1.5) or electrical signals were processed through a low-pass filter at 5 KHz, re-digitalized and acquired at 20 kHz. Series resistance was not compensated and leak subtraction was performed.
1 to 3 million Chinese Hamster Ovary cells (also known as CHO-K1) stably expressing human Nav1.5 were seeded into […] culture flasks with 25 mL medium (consisting of Gibco Dulbecco's Modified Eagle Medium as a base medium with 1% MEM non-essential amino acids, 400 μg/mL Geneticin, 5 μg/mL puromycin and 10% fetal bovine serum) 48-72 hours prior to the experiments. On the day of the experiment, cells were washed once with phosphate-buffered saline (also known as PBS; Gibco) detached with Detachin™ (Genlantis), and re-suspended in CHO—S-SFM II media (Gibco) at 200,000 cells/mL. The CHO—S-SFM II was replaced with assay solutions prior to the assays. Whole-cell currents were recorded at room temperature in the whole-cell configuration. The external aqueous assay solution (pH=7.4; Osm=307-315) contained the following (the concentration for each component is expressed in parentheses in mM): NaCl (140 mM), KCl (4 mM), CaCl2) (2 mM), MgCl2 (1 mM), 4-(2-hydroxyethyl)-1-piperazineethanesulfonic acid, also known as HEPES (10 mM), and glucose (5 mM). The internal aqueous assay solution (pH=7.2; Osm=292-295) contained the following (the concentration for each component is expressed in parentheses in mM): CsF (110 mM), CsCl (10 mM), NaCl (10 mM), HEPES (10 mM), and ethylene glycolbis(β-aminoethyl ether)-N,N,N′,N′-tetraacetic acid, also known as EGTA (10 mM).
To assess peak Nav1.5 current inhibition mimicking a ventricular condition at sinus rate with or without ATX-II (Nav1.5 IC50 (1 Hz, ATXII) (μM) or (1 Hz, Sinus Rate) (μM)), compounds were first prepared at 10 mM in DMSO, and cells were pre-incubated with test compounds at each concentration for 3 min. in an ascending order of 0, 0.37, 1.1, 3.3, 10 and 30 uM. In the assay with ATX-II (Alomone Labs), 50 nM ATX-II was included during the 3-min. compound incubation. A square pulse (−10 mV; 400 ms and a holding potential at −100 mV) was run at 1 Hz for 25 s until no further inhibition or Nav1.5 current change was observed. The percent inhibition (expressed as ([Iafter compound treatment/Ibefore compound treatment]×100%) is calculated by normalizing the peak current amplitude at the last pulse of each of the 6 compound concentrations by the amplitude before exposure to the test compound. The compiled data was further normalized by vehicle control (DMSO) to account for Nav1.5 current run-down, and IC50 was calculated by Matlab (MathWorks, USA).

human Nav1.5 [4] = target: T1, human Nav1.5; assay: Qpatch automated patch-clamp, peak Nav1.5 current inhibition, 5-Hz AF-like assay (holding potential -85 mV); format: cell-based; settings: CHO-K1 cells stably expressing human Nav1.5, holding potential -85 mV, Table 5, read-out: Nav1.5 IC50 (5 Hz, AF Rate)
In short: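 CHO-K1 cells stably expressing human Nav1.5, whole-cell automated patch-clamp at room temperature, CsF-based internal. Compounds pre-incubated 3 min each at ascending 0-30 μM; +10 to −85 mV ramp (150 ms) applied at 5 Hz for 12 s from −85 mV holding. IC50 from last-pulse peak current, vehicle-normalized for run-down.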

T1 sequence (Q14524 whole entry): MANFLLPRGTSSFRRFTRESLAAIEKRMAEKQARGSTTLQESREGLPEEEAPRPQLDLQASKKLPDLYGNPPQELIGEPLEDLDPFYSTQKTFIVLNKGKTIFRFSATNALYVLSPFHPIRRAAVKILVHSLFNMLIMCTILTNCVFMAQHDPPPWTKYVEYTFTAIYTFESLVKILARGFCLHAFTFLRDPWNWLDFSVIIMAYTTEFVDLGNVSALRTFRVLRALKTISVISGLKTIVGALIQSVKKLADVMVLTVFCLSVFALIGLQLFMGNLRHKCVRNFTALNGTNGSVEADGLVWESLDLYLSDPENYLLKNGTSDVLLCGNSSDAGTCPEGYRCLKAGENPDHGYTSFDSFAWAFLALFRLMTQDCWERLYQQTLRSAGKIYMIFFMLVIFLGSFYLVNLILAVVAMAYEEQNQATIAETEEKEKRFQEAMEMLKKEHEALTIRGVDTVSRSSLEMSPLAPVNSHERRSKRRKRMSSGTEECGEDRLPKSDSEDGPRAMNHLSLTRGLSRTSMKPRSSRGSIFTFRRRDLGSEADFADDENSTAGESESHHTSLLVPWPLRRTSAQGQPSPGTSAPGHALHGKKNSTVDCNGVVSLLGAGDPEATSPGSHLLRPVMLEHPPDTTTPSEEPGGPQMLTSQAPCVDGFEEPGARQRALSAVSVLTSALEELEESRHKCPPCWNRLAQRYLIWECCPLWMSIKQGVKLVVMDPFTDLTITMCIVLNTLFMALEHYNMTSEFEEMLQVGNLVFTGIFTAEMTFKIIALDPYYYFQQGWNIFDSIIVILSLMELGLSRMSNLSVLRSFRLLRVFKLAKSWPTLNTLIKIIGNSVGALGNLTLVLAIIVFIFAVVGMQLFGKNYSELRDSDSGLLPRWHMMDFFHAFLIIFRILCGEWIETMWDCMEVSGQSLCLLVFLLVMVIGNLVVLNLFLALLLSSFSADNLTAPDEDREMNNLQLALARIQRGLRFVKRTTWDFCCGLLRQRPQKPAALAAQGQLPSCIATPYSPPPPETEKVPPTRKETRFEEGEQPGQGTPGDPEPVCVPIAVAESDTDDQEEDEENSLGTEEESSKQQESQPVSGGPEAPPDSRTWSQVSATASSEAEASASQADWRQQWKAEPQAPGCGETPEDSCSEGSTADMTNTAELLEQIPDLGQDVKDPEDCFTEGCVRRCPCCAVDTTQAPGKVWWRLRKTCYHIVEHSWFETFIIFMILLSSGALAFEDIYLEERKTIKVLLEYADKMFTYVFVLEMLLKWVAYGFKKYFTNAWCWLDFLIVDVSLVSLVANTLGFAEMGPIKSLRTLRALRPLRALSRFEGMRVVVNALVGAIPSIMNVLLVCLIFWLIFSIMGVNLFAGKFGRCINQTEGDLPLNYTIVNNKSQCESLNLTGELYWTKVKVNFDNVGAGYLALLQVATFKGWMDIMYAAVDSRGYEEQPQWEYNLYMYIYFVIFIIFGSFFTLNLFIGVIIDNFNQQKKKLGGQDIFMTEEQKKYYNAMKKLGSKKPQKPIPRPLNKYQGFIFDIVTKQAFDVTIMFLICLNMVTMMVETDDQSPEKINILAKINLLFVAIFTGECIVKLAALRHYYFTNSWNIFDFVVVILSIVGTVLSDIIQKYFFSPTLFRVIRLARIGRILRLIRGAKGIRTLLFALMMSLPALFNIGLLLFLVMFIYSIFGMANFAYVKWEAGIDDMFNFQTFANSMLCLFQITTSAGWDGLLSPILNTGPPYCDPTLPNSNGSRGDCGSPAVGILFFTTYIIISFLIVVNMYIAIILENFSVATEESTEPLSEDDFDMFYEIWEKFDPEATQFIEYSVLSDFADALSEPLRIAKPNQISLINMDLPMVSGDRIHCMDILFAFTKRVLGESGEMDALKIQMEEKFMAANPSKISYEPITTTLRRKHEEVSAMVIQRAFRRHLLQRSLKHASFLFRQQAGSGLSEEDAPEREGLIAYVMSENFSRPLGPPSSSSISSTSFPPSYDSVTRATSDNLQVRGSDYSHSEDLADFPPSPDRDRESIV

Row | SMILES | reversible water uptake ([1]; at 90% relative humidity) | hygroscopicity [1] | IC50 (human Nav1.5 [2]) [µM] | IC50 (human Nav1.5 [3]) [µM] | IC50 (human Nav1.5 [4]) [µM]
1 | C[C@](O)(CS(N)(=O)=O)c1cccc(-c2nnn(Cc3cc(OC(F)(F)F)ccc3F)n2)n1 [Modification A-1, (R)-2-(6-(2-(2-fluoro-5-(trifluoromethoxy)benzyl)-2H-tetrazol-5-yl)pyridin-2-yl)-2-hydroxypropane-1-sulfonamide] | about 0.10% | not hygroscopic | – | – | –
2 | CC(C(C)(O)c1cccc(-c2nnn(Cc3cc(OC(F)(F)F)ccc3F)n2)n1)S(N)(=O)=O (single isomer, unassigned) [Example 14, (2R or 2S,3R or 3S)-3-(6-(2-(2-fluoro-5-(trifluoromethoxy)benzyl)-2H-tetrazol-5-yl)pyridin-2-yl)-3-hydroxybutane-2-sulfonamide] | – | – | 15 | > 30 | 4
3 | CC(O)(CS(N)(=O)=O)c1ccc(F)c(-c2nnn(Cc3cc(OC(F)(F)F)ccc3F)n2)c1 (single isomer, unassigned) [Example 9, (R or S)-2-(4-fluoro-3-(2-(2-fluoro-5-(trifluoromethoxy)benzyl)-2H-tetrazol-5-yl)phenyl)-2-hydroxypropane-1-sulfonamide] | – | – | > 30 | > 30 | 4.1
4 | C[C@](O)(CS(N)(=O)=O)c1cccc(-c2nnn(Cc3cc(OC(F)(F)F)ccc3F)n2)n1 [Modification A-2, (R)-2-(6-(2-(2-fluoro-5-(trifluoromethoxy)benzyl)-2H-tetrazol-5-yl)pyridin-2-yl)-2-hydroxypropane-1-sulfonamide] | – | hygroscopic and shows gel formation at 70% relative humidity and above | – | – | –
5 | CC(C(C)(O)c1cccc(-c2nnn(Cc3cc(OC(F)(F)F)ccc3F)n2)n1)S(N)(=O)=O (single isomer, unassigned) [Example 15, (2R or 2S,3R or 3S)-3-(6-(2-(2-fluoro-5-(trifluoromethoxy)benzyl)-2H-tetrazol-5-yl)pyridin-2-yl)-3-hydroxybutane-2-sulfonamide] | – | – | 24 | > 30 | 4.1
6 | CC(O)(CS(N)(=O)=O)c1nc(-c2nnn(Cc3cc(OC(F)(F)F)ccc3F)n2)ccc1F (single isomer, unassigned) [Example 44, (R or S)-2-(3-fluoro-6-(2-(2-fluoro-5-(trifluoromethoxy)benzyl)-2H-tetrazol-5-yl)pyridin-2-yl)-2-hydroxypropane-1-sulfonamide] | – | – | 19 | > 30 | 4.6
7 | CC(O)(CS(N)(=O)=O)c1cccc(-c2nnn(Cc3cc(OC(F)(F)F)ccc3F)n2)c1F (single isomer, unassigned) [Example 11, (R or S)-2-(2-fluoro-3-(2-(2-fluoro-5-(trifluoromethoxy)benzyl)-2H-tetrazol-5-yl)phenyl)-2-hydroxypropane-1-sulfonamide] | – | – | 5.6 | 8.9 | 1.7
8 | CC(C(C)(O)c1cccc(-c2nnn(Cc3cc(OC(F)(F)F)ccc3F)n2)n1)S(N)(=O)=O (single isomer, unassigned) [Example 13, (2R or 2S, 3R or 3S)-3-(6-(2-(2-fluoro-5-(trifluoromethoxy)benzyl)-2H-tetrazol-5-yl)pyridin-2-yl)-3-hydroxybutane-2-sulfonamide] | – | – | > 30 | 12 | 4.3
9 | CC(C(C)(O)c1cccc(-c2nnn(Cc3cc(OC(F)(F)F)ccc3F)n2)n1)S(N)(=O)=O (single isomer, unassigned) [Example 16, (2R or 2S, 3R or 3S)-3-(6-(2-(2-fluoro-5-(trifluoromethoxy)benzyl)-2H-tetrazol-5-yl)pyridin-2-yl)-3-hydroxybutane-2-sulfonamide] | – | – | 4.8 | 16 | 2.8
10 | C[C@](O)(CS(N)(=O)=O)c1cccc(-c2nnn(Cc3cc(OC(F)(F)F)ccc3F)n2)n1 [Modification A-3, (R)-2-(6-(2-(2-fluoro-5-(trifluoromethoxy)benzyl)-2H-tetrazol-5-yl)pyridin-2-yl)-2-hydroxypropane-1-sulfonamide] | – | hygroscopic and shows gel formation at 70% relative humidity and above | – | – | –
11 | CC(O)(CS(N)(=O)=O)c1nc(-c2nnn(Cc3cc(OC(F)(F)F)ccc3F)n2)ccc1F (single isomer, unassigned) [Example 45, (R or S)-2-(3-fluoro-6-(2-(2-fluoro-5-(trifluoromethoxy)benzyl)-2H-tetrazol-5-yl)pyridin-2-yl)-2-hydroxypropane-1-sulfonamide] | – | – | > 30 | > 30 | 4.8
12 | CC(C(O)c1cccc(-c2nnn(Cc3cc(OC(F)(F)F)ccc3F)n2)n1)S(N)(=O)=O (single isomer, unassigned) [Example 52, (JR or 1S,2R or 2S)-1-(6-(2-(2-fluoro-5-(trifluoromethoxy)benzyl)-2H-tetrazol-5-yl)pyridin-2-yl)-1-hydroxypropane-2-sulfonamide] | – | – | 22 | 49 | 2.9
13 | CC(O)(CS(N)(=O)=O)c1cc(F)cc(-c2nnn(Cc3cc(OC(F)(F)F)ccc3F)n2)c1 (single isomer, unassigned) [Example 24, (R or S)-2-(3-fluoro-5-(2-(2-fluoro-5-(trifluoromethoxy)benzyl)-2H-tetrazol-5-yl)phenyl)-2-hydroxypropane-1-sulfonamide] | – | – | 7.8 | > 30 | 2
14 | C[C@](O)(CS(N)(=O)=O)c1cccc(-c2nnn(Cc3cc(OC(F)(F)F)ccc3F)n2)n1 [Example 1, (R)-2-(6-(2-(2-fluoro-5-(trifluoromethoxy)benzyl)-2H-tetrazol-5-yl)pyridin-2-yl)-2-hydroxypropane-1-sulfonamide] | – | – | 19 | 22 | 3.1
15 | CC(O)(CS(N)(=O)=O)c1ccc(F)c(-c2nnn(Cc3cc(OC(F)(F)F)ccc3F)n2)c1 (single isomer, unassigned) [Example 10, (R or S)-2-(4-fluoro-3-(2-(2-fluoro-5-(trifluoromethoxy)benzyl)-2H-tetrazol-5-yl)phenyl)-2-hydroxypropane-1-sulfonamide] | – | – | 11 | > 30 | 1
16 | CC(O)(CS(N)(=O)=O)c1cccc(-c2nnn(Cc3cc(OC(F)(F)F)ccc3F)n2)c1F (single isomer, unassigned) [Example 12, (R or S)-2-(2-fluoro-3-(2-(2-fluoro-5-(trifluoromethoxy)benzyl)-2H-tetrazol-5-yl)phenyl)-2-hydroxypropane-1-sulfonamide] | – | – | 5.2 | 10 | 4.2
17 | CC(O)(CS(N)(=O)=O)c1cccc(-c2ncn(Cc3cc(OC(F)(F)F)ccc3F)n2)n1 (racemic) [Rac-55 + 56, 2-(6-(1-(2-fluoro-5-(trifluoromethoxy)benzyl)-1H-1,2,4-triazol-3-yl)pyridin-2-yl)-2-hydroxypropane-1-sulfonamide] | – | – | 17 | > 30 | 4.5
